Laboratory results as given in patent US9650361B2, “N-(pyridin-2-yl)pyrimidin-4-amine derivatives containing a sulfoximine group” (BAYER PHARAM AKTIENGESELLSCHAFT, priority 2012, dated 2017).
In brackets after ≈: the same amount, converted by molar mass.

How the values were obtained:
[1] = Equilibrium shake flask solubility assay, thermodynamic solubility in citrate buffer pH 4 (Method 4b); type: physicochemical; conditions: aqueous buffer, thermodynamic from solid; citrate buffer pH 4, 24 h, room temperature; read-out: Solubility in Citrate buffer pH4
Protocol: 4b) Thermodynamic Solubility in Citrate Buffer pH 4
Thermodynamic solubility was determined by an equilibrium shake flask method [Literature: Edward H. Kerns and Li Di (2008) Solubility Methods in: Drug-like Properties: Concepts, Structure Design and Methods, p 276-286. Burlington, Mass.: Academic Press].
A saturated solution of the drug was prepared and the solution was mixed for 24 h to ensure that equilibrium has been reached. The solution was centrifuged to remove the insoluble fraction and the concentration of the compound in solution was determined using a standard calibration curve.
To prepare the sample, 1.5 mg solid compound was weighed in a 4 ml glass vial. 1 ml Citrate buffer pH 4 was added. The suspension was put on a stirrer and mixed for 24 hrs at room temperature. The solution was centrifuged afterwards. To prepare the sample for the standard calibration, 0.6 mg solid sample was dissolved in 19 ml acetonitrile/water 1:1. After sonification the solution was filled up with acetonitrile/water 1:1 to 20 ml.
Sample and standards were quantified by HPLC with UV-detection. For each sample two injection volumes (5 and 50 μl) in triplicates were made. Three injection volumes (5 μl, 10 μl and 20 μl) were made for the standard.
Citrate buffer pH 4 (MERCK Art. 109435; 1 L buffer consisting of 11,768 g citric acid,
4,480 g sodium hydroxide, 1,604 g hydrogen chloride)
Chromatographic conditions were as follows:
HPLC column: Xterra MS C18 2.5 μm 4.6×30 mm
Injection volume: Sample: 3×5 μl and 3×50 μl
• Standard: 5 μl, 10 μl, 20 μl Flow: 1.5 ml/min Mobile phase: acidic gradient: • A: Water/0.01% TFA • B: Acetonitrile/0.01% TFA • 0 min: 95% A 5% B • 0-3 min: 35% A 65% B, linear gradient • 3-5 min: 35% A 65% B, isocratic • 5-6 min: 95% A 5% B, isocratic UV detector: wavelength near the absorption maximum (between 200 and 400 nm)
The areas of sample- and standard injections as well as the calculation of the solubility value (in mg/l) were determined by using HPLC software (Waters Empower 2 FR).

[2] = Caco-2 permeation assay (Method 5); type: in vitro ADME; conditions: human, Caco-2, pH 7.2, 2 μM test compound; for Papp A→B at 2 h, 2 µM: read-out: Papp A-B (Mari); for Papp B→A at 2 h, 2 µM: read-out: Papp B-A (Mari); for efflux ratio at 2 h, 2 µM: Papp B-A / Papp A-B
Protocol: 5. Caco-2 Permeation Assay:
Caco-2 cells (purchased from DSMZ Braunschweig, Germany) were seeded at a density of 4.5×10^4 cells per well on 24 well insert plates, 0.4 μm pore size, and grown for 15 days in DMEM medium supplemented with 10% fetal bovine serum, 1% GlutaMAX (100×, GIBCO), 100 U/mL penicillin, 100 μg/mL streptomycin (GIBCO) and 1% non essential amino acids (100×). Cells were maintained at 37° C. in a humidified 5% CO2 atmosphere. Medium was changed every 2-3 day. Before running the permeation assay, the culture medium was replaced by a FCS-free hepes-carbonate transport buffer (pH 7.2). For assessment of monolayer integrity the transepithelial electrical resistance (TEER) was measured. Test compounds were predissolved in DMSO and added either to the apical or basolateral compartment in final concentration of 2 μM in transport buffer. Before and after 2 h incubation at 37° C. samples were taken from both compartments. Analysis of compound content was done after precipitation with methanol by LC/MS/MS analysis. Permeability (Papp) was calculated in the apical to basolateral (A→B) and basolateral to apical (B→A) directions. The apparent permeability was calculated using following equation: Papp=(Vr/Po)(1/S)(P2/t)
Where Vr is the volume of medium in the receiver chamber, Po is the measured peak area or height of the test drug in the donor chamber at t=o, S the surface area of the monolayer, P2 is the measured peak area of the test drug in the acceptor chamber after 2 h of incubation, and t is the incubation time. The efflux ratio basolateral (B) to apical (A) was calculated by dividing the Papp B-A by the Papp A-B. In addition the compound recovery was calculated. The following reference compounds were used for the classification of the permeability class: Antipyrine, Pyrazosin, Verapamil, Fluvastatin, Cimetidine, Ranitidine, Atenolol, Sulfasalazine.

[3] = target: T1, human carbonic anhydrase-1 (Homo sapiens, UniProt P00915); test: Carbonic anhydrase assay, carbonic anhydrase-1 (Method 6); type: biochemical; conditions: read-out: Inhibition of Carbonic anhydrase-1 IC50
T1 construct: purchased Sigma C4396
Protocol: 6. Carbonic Anhydrase Assay
The principle of the assay is based on the hydrolysis of 4-nitrophenyl acetate by carbonic anhydrases (Pocker & Stone, Biochemistry, 1967, 6, 668), with subsequent photometric determination of the dye product 4-nitrophenolate at 400 nm by means of a 96-channel spectral photometer.
2 μL of the test compounds, dissolved in DMSO (100-fold final concentration), in a concentration range of 0.03-10 μmol/L (final), was pipetted as quadruplicates into the wells of a 96-hole microtiter plate. Wells that contained the solvent without test compounds were used as reference values (1. Wells without carbonic anhydrase for correction of the non-enzymatic hydrolysis of the substrate, and 2. Wells with carbonic anhydrase for determining the activity of the non-inhibited enzyme).
188 μL of assay buffer (10 mmol/L of Tris/HCl, pH 7.4, 80 mmol/L of NaCl), with or without 3 units/well of carbonic anhydrase-1 [=human carbonic anhydrase-1 (Sigma, #C4396)] in order to determine carbonic anhydrase-1 inhibition or 3 units/well of carbonic anhydrase-2 [=human carbonic anhydrase-2 (Sigma, #C6165)] for measuring carbonic anhydrase-2 inhibition, was pipetted into the wells of the microtiter plate.

T1 sequence (P00915 whole entry): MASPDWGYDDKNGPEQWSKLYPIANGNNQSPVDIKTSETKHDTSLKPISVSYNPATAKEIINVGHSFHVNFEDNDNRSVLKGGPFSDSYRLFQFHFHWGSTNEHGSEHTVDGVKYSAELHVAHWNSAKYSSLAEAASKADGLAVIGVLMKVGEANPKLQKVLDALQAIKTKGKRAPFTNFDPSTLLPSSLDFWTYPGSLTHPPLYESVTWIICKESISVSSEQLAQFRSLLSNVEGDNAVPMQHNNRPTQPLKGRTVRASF

SMILES | solubility at 24 h [1] | Papp A→B at 2 h, 2 µM [2] | Papp B→A at 2 h, 2 µM [2] | efflux ratio at 2 h, 2 µM [2] | IC50 [3]
COc1cc(F)ccc1-c1cc(Nc2cc(CS(C)(=N)=O)cc(Cl)n2)ncn1 (racemic) [Example 4, (rac)-N-{6-Chloro-4-[(S-methylsulfonimidoyl)methyl]pyridin-2-yl}-6-(4-fluoro-2-methoxyphenyl)pyrimidin-4-amine] | 15 µg/mL (≈ 35.6 µM) | – | – | – | –
COc1cc(F)ccc1-c1cc(Nc2cc(CS(C)(=N)=O)cc(C(F)(F)F)n2)ncn1 (racemic) [Example 10, (rac)-6-(4-Fluoro-2-methoxyphenyl)-N-{4-[(S-methylsulfonimidoyl)methyl]-6-(trifluoromethyl)pyridin-2-yl}pyrimidin-4-amine] | 11 µg/mL (≈ 24.2 µM) | 4.5 ×10⁻⁶ cm/s | 20.6 ×10⁻⁶ cm/s | 4.58 | –
COc1cc(F)ccc1-c1cc(Nc2cc(CS(C)(=N)=O)cc(C)n2)ncn1 (racemic) [Example 7, (rac)-6-(4-Fluoro-2-methoxyphenyl)-N-{6-methyl-4-[(S-methylsulfonimidoyl)methyl]pyridin-2-yl}pyrimidin-4-amine] | 157 µg/mL (≈ 391 µM) | 3.9 ×10⁻⁶ cm/s | 28.9 ×10⁻⁶ cm/s | 7.49 | –
COc1cc(F)ccc1-c1cc(Nc2cc(CS(C)(=N)=O)ccn2)ncn1 (racemic) [Example 1, (rac)-6-(4-Fluoro-2-methoxyphenyl)-N-{4-[(S-methylsulfonimidoyl)methyl]pyridin-2-yl}pyrimidin-4-amine] | – | 2.6 ×10⁻⁶ cm/s | 24.3 ×10⁻⁶ cm/s | 9.3 | > 10 µM
